# Measurements as given in patent US20190382850A1, “METHOD FOR IDENTIFYING MITOCHONDRIAL DNA IN EXTRACELLULAR VESICLES AND TREATMENT OF MTDNA-RELATED DISORDERS AND CANCER” (Memorial Sloan-Kettering Cancer Center, priority 2017, published 2019).
# Test system: ND1 DNA in EVs from patients
# Assay: mtDNA ND1 level (qPCR) in circulating EVs of patients before and after therapy
# Assay type: in vivo, human
# Settings: FIG. 7d
# Description: (Panel a), Dot plot of nuclear DNA copy number quantification as determined by qPCR for GAPDH gene in circulating EVs isolated from fresh collected plasma (5-8 ml) of 8 healthy controls and 20 luminal breast cancer patients at different stage of their disease (Table 5). Each point corresponds to a patient sample. (Panel b), Schematic and gel electrophoresis of whole mtDNA genome amplified in several patient derived circulating EV-DNA resulting from 46 overlapping PCR amplicons to cover all the mtDNA genome. (Panel c), mtDNA ND1 level change (Ct qPCR value from 2 ng of total EV-DNA) determined in the same patient (two different examples are reported) following time and therapy response (PR, partial response; Stable Disease; POD, progression of disease); (Panel d) mtDNA ND1 level change (Ct qPCR value from 2 ng of total EV-DNA) determined in two different patients (#1, #2) before and after a certain therapy. Data are reported as error bars, mean±s.d. of n=3 independent experiments. […]
# DNA and cDNAs were amplified by quantitative PCR (qPCR) using the Applied Biosystem Viia™ 7 Real-Time PCR System in the Power SYBR® Green PCR Master Mix Buffer. […] For analysis, ΔΔct method was applied and fold change was calculated (2^−ΔΔct). […]
smiles,measurement,value
COc1cccc2c1C(=O)c1c(O)c3c(c(O)c1C2=O)C[C@@](O)(C(=O)CO)C[C@@H]3O[C@H]1C[C@H](N)[C@H](O)[C@H](C)O1 [Doxorubicin],ND1 DNA level in EVs from patients receiving the therapy,higher
